In patent publication US8586591B2, “Aminopyrazine derivative and medicine” (Nippon Shinyaku Co., Ltd., priority 2009, dated 2013):
pIC50: −log10 of the molar value. Counter-ions that a name gives are not always drawn.

Tests used:
JAK2 tyrosine kinase = molecular target: T1, JAK2 tyrosine kinase (Homo sapiens, UniProt O60674); assay: Test 1: inhibitory activity to JAK2 tyrosine kinase (ELISA); assay type: biochemical; settings: 25 μM ATP in substrate solution, 30° C. for 1 hour, n=2
T1 construct: purchased Carnabioscience Co
T1 sequence (O60674 whole entry): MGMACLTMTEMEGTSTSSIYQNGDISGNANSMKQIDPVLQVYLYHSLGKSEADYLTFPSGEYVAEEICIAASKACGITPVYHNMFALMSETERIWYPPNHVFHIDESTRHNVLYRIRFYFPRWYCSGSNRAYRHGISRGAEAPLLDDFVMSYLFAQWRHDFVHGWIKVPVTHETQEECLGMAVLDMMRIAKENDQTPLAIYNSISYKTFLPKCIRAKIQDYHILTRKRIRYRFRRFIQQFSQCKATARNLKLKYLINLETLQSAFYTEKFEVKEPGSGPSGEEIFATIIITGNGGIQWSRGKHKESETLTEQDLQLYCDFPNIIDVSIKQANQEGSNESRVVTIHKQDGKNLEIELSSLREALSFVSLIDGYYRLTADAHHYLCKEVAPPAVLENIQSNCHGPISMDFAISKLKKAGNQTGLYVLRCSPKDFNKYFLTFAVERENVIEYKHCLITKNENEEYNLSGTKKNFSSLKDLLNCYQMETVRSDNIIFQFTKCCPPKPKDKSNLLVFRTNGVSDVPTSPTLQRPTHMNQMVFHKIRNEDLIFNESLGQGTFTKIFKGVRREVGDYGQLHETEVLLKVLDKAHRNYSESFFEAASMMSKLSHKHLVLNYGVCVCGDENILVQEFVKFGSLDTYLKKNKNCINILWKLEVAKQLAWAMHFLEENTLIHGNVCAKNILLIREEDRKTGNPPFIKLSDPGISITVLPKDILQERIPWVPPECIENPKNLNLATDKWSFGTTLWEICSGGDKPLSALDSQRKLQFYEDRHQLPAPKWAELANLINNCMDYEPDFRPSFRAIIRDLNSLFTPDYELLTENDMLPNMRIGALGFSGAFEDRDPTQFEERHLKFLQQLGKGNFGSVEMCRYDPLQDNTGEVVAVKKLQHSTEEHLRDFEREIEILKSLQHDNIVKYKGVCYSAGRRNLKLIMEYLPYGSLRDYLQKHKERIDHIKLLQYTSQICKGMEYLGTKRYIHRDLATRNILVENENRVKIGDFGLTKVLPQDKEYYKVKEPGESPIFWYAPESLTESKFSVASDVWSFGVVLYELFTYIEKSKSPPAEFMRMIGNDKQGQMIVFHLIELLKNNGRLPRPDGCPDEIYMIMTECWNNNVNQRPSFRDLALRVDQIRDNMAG
In short: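 This is an ELISA read at A450 (HRP anti-phosphotyrosine antibody, TMB) of biotin-peptide phosphorylation captured on streptavidin. Enzyme solution was 0.75 nM JAK2, and the substrate solution was 625 nM peptide with 25 μM ATP in Tris pH 7.5 buffer. The reaction ran 1 h at 30 °C with compounds in duplicate, and IC50 was fitted non-linearly.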

JAK3 tyrosine kinase = molecular target: T2, JAK3 tyrosine kinase (Homo sapiens, UniProt P52333); assay: Test 1: inhibitory activity to JAK3 tyrosine kinase (ELISA); assay type: biochemical; settings: 25 μM ATP in substrate solution, 30° C. for 1 hour, n=2
T2 construct: purchased Carnabioscience Co
T2 sequence (P52333 1-1124): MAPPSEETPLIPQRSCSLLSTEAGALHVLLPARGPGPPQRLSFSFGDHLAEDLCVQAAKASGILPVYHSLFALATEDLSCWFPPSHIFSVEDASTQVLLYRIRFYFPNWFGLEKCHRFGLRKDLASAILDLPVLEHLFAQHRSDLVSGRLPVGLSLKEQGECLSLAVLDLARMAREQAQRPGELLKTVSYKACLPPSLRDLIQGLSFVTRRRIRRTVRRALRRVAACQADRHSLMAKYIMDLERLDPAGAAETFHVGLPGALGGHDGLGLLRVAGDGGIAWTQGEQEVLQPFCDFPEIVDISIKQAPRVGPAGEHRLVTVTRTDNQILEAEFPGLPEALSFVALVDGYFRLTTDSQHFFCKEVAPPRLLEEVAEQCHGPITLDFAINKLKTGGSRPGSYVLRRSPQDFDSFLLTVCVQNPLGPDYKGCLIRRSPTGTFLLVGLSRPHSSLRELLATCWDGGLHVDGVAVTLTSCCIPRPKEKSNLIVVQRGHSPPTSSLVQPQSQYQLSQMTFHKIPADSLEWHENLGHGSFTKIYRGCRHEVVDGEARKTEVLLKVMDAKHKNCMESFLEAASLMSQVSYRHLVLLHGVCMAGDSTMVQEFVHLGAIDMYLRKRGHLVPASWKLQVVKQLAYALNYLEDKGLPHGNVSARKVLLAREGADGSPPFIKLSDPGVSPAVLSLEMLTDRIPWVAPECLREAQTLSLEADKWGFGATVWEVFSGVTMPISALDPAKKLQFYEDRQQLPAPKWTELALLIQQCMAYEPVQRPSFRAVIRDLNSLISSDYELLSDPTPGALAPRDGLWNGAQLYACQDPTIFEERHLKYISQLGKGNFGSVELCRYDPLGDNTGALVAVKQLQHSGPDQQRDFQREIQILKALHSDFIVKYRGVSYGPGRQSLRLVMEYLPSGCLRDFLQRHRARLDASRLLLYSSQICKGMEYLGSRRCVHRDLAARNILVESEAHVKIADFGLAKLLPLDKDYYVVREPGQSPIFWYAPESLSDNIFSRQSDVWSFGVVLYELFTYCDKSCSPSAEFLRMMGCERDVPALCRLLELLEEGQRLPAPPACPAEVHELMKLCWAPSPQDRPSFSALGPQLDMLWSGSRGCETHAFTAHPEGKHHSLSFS
In short: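 ELISA of JAK3 kinase activity with absorbance read at 450 nm. Compounds were tested from DMSO dilution series at 100-fold the measurement concentrations (1000–0.01 μM), diluted up to 20 times in assay buffer, against a DMSO negative control. IC50 was estimated by non-linear regression of absorbance.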

Structure (SMILES): COc1ccc(-c2cc(Nc3cnccn3)nc(N[C@@H](C)c3ccc(F)cc3)n2)cn1 [Example 23, (S)—N^2-[1-(4-Fluorophenyl)ethyl]-6-(6-methoxypyridin-3-yl)-N^4-(pyrazin-2-yl)pyrimidine-2,4-diamine hydrochloride]
- pIC50 (JAK2 tyrosine kinase): 8.38
- pIC50 (JAK3 tyrosine kinase): 6.68

Structure (SMILES): COc1ncc(-c2cc(Nc3cnccn3)nc(N[C@@H](C)c3ccc(F)cc3)n2)s1 [Example 53, (S)—N^2-[1-(4-Fluorophenyl)ethyl]-6-(2-methoxythiazol-5-yl)-N^4-(pyrazin-2-yl)pyrimidine-2,4-diamine]
- pIC50 (JAK2 tyrosine kinase): 8.23
- pIC50 (JAK3 tyrosine kinase): 6.41

Structure (SMILES): C[C@H](Nc1nc(Nc2cnccn2)cc(-c2ccc(C(N)=O)cc2)n1)c1ccc(F)cc1 [Example 80, (S)-4-{2-[1-(4-Fluorophenyl)ethylamino]-6-(pyrazin-2-ylamino)pyrimidin-4-yl}benzamide hydrochloride]
- pIC50 (JAK2 tyrosine kinase): 8.96
- pIC50 (JAK3 tyrosine kinase): 7.22

Structure (SMILES): C[C@H](Nc1nc(Nc2cnccn2)cc(-c2cnco2)n1)c1ccc(F)cc1 [Example 22, (S)—N^2-[1-(4-Fluorophenyl)ethyl]-6-(oxazol-5-yl)-N^4-(pyrazin-2-yl)pyrimidine-2,4-diamine hydrochloride]
- pIC50 (JAK2 tyrosine kinase): 8.80
- pIC50 (JAK3 tyrosine kinase): 7.06

Structure (SMILES): C[C@H](Nc1nc(Nc2cnccn2)cc(-c2cncs2)n1)c1ccc(F)cc1 [Example 49, (S)—N^2-[1-(4-Fluorophenyl)ethyl]-N^4-(pyrazin-2-yl)-6-(thiazol-5-yl)pyrimidine-2,4-diamine]
- pIC50 (JAK2 tyrosine kinase): 8.64
- pIC50 (JAK3 tyrosine kinase): 6.77

Structure (SMILES): Cc1cnc(CNc2cc(Nc3cnccn3)nc(N[C@@H](C)c3ccc(F)cc3)n2)cn1 [Example 102, (S)—N^2-[1-(4-Fluorophenyl)ethyl]-N^4-[(5-methylpyrazin-2-yl)methyl]-N^6-(pyrazin-2-yl)pyrimidine-2,4,6-triamine hydrochloride]
- pIC50 (JAK2 tyrosine kinase): 8.59
- pIC50 (JAK3 tyrosine kinase): 6.85

Structure (SMILES): C[C@H](Nc1nc(NCCN2CCCC2)cc(Nc2cnccn2)n1)c1ccc(F)cc1 [Example 96, (S)—N^2-[1-(4-Fluorophenyl)ethyl]-N^4-(pyrazin-2-yl)-N^6-[2-(pyrrolidin-1-yl)ethyl]pyrimidine-2,4,6-triamine]
- pIC50 (JAK2 tyrosine kinase): 8.85
- pIC50 (JAK3 tyrosine kinase): 7.48

Structure (SMILES): C[C@H](Nc1nc(Nc2cnccn2)cc(-c2cccc(C(N)=O)c2)n1)c1ccc(F)cc1 [Example 91]
- pIC50 (JAK2 tyrosine kinase): 8.85
- pIC50 (JAK3 tyrosine kinase): 7.01

Structure (SMILES): C[C@H](Nc1nc(Nc2cnccn2)cc(-c2cc[nH]c2)n1)c1ccc(F)cc1 [Example 66, (S)—N^2-[1-(4-Fluorophenyl)ethyl]-N^4-(pyrazin-2-yl)-6-(1H-pyrrol-3-yl)pyrimidine-2,4-diamine]
- pIC50 (JAK2 tyrosine kinase): 8.74
- pIC50 (JAK3 tyrosine kinase): 7.43

Structure (SMILES): C[C@H](Nc1nc(Nc2cnccn2)cc(N2CCC(C(=O)NS(C)(=O)=O)CC2)n1)c1ccc(F)cc1 [Example 122, (S)-1-{2-[1-(4-Fluorophenyl)ethylamino]-6-(pyrazin-2-ylamino)pyrimidin-4-yl}-N-(methylsulfonyl)piperidine-4-carboxamide]
- pIC50 (JAK2 tyrosine kinase): 9.40
- pIC50 (JAK3 tyrosine kinase): 7.52

Structure (SMILES): C[C@H](Nc1nc(Nc2cnccn2)cc(-c2cncc(C#N)c2)n1)c1ccc(F)cc1 [Example 74, (S)-5-{2-[1-(4-Fluorophenyl)ethylamino]-6-(pyrazin-2-ylamino)pyrimidin-4-yl}nicotinonitrile]
- pIC50 (JAK2 tyrosine kinase): 8.42
- pIC50 (JAK3 tyrosine kinase): 6.64

Structure (SMILES): C[C@H](Nc1nc(Nc2cnccn2)cc(-c2ccc3c(c2)OCO3)n1)c1ccc(F)cc1 [Example 92, (S)-6-(Benzo[d]1,3-dioxol-5-yl)-N^2-[1-(4-fluorophenyl)ethyl]-N^4-(pyrazin-2-yl)pyrimidine-2,4-diamine hydrochloride]
- pIC50 (JAK2 tyrosine kinase): 8.01
- pIC50 (JAK3 tyrosine kinase): 6.34

Structure (SMILES): C[C@H](Nc1nc(Nc2cnccn2)cc(OCCN(C)C)n1)c1ccc(F)cc1 [Example 89, (S)-6-[2-(Dimethylamino)ethoxy]-N^2-[1-(4-fluorophenyl)ethyl]-N^4-(pyrazin-2-yl)pyrimidine-2,4-diamine dihydrochloride]
- pIC50 (JAK2 tyrosine kinase): 8.42
- pIC50 (JAK3 tyrosine kinase): 6.82
